Consider two compounds from ChEMBL document CHEMBL4831552, “Novel Substituted Piperazine Amide Compounds as Indoleamine-2,3-dioxygenase (IDO) Inhibitors” (ACS Med Chem Lett, 2021).

In this assay the target is Indoleamine 2,3-dioxygenase 1 (Homo sapiens, UniProt P14902). The assay can be described thus: Inhibition of IDO1 in IFN-gamma stimulated human HeLa cells incubated for 48 hrs by fluorescence microplate reader assay.

The term IC50 denotes the point on the concentration scale where inhibition reaches its midpoint. Lower therefore signals greater potency in that assay.

Chain of Indoleamine 2,3-dioxygenase 1 (P14902 whole entry): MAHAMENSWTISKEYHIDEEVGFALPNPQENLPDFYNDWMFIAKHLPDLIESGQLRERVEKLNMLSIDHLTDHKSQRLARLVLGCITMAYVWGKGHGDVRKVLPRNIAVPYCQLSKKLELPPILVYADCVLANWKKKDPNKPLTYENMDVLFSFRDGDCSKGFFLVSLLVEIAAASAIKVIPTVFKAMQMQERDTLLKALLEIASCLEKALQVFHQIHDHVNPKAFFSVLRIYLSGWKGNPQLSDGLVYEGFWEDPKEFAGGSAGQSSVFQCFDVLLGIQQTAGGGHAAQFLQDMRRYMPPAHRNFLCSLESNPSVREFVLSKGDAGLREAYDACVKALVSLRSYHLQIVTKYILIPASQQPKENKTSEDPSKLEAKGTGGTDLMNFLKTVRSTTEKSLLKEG

As for `CC(=O)NC1CCN(C(=O)c2nn(CC(=O)N3CCN(c4cccc(C)c4Cl)CC3)c3c2C2CCCCC2C3)CC1` (configuration not stated), the IC50 amounted to 0.59 nM. This counts as sub-nanomolar.

Regarding `Cc1cccc(N2CCN(C(=O)Cn3nc(C(=O)N4CCC5(CO)CC4C5)c4c3C[C@H]3C[C@@H]43)CC2)c1C`, the IC50 is less than 0.51 nM.
